Assay results published in US9902728B2, “Pyrrolo and pyrazolopyrimidines as ubiquitin-specific protease 7 inhibitors” (Forma Therapeutics, Inc., priority 2014, dated 2018).

target: T1, USP7 (Homo sapiens, UniProt Q93009); assay: USP7 Assay A (Ubitquin-Rhodamine 110 Assay); assay type: biochemical; conditions: USP7 activity in USP7 assay A and B (table does not say which assay per compound); read-out: USP7_IC50
T1 construct: USP7, construct USP7 (208-1102) 6*His, Viva Biotech; 6xHis (C); purchased Viva Biotech
T1 sequence (Q93009 208-1102): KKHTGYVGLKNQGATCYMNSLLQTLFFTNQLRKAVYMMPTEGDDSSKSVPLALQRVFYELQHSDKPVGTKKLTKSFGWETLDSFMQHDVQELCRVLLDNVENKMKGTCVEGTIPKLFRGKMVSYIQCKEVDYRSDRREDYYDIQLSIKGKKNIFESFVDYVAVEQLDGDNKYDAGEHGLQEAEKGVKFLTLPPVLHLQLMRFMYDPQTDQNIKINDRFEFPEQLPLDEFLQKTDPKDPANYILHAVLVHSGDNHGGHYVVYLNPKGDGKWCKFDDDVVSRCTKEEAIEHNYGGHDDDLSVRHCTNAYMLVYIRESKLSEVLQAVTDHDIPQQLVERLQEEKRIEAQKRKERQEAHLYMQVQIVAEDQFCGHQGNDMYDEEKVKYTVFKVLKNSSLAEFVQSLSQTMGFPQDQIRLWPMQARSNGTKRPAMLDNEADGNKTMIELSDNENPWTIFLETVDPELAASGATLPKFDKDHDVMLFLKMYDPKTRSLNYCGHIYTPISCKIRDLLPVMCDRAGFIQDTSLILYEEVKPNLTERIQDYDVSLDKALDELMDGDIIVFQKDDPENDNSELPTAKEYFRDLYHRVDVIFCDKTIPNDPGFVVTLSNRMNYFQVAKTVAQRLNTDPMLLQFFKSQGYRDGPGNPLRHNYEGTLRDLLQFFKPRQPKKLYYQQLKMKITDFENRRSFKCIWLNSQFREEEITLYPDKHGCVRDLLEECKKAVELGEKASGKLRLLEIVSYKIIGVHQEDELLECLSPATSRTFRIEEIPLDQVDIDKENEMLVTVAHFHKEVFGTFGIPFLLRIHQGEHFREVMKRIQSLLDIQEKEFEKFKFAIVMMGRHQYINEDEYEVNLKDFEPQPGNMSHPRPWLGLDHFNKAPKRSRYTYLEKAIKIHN
In short: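 Enzyme and compound sat together for 30 min before Ub-Rh110 was added, in buffer of 20 mM Tris-HCl (pH 8.0), 1 mM GSH, 0.03% BGG and 0.01% Triton X-100.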

| SMILES | IC50 [nM] |
| --- | --- |
| O=C(c1ccc(F)cc1)N1CCC(O)(Cn2cnc3c(cnn3-c3ccc(N4CC[C@H](O)C4)cc3)c2=O)CC1 [Compound I-1434] | 1000 to 10000 |
| CC1(C(=O)N2CCC(O)(Cn3cnc4c(cnn4-c4ccc(N5CCC(F)CC5)cc4)c3=O)CC2)CC1 [Compound I-1445] | 200 to 1000 |
| CC1(COc2ccc(-n3ncc4c(=O)n(CC5(O)CCN(C(=O)c6cnc(C7CC7)o6)CC5)cnc43)cc2)CCC1 [Compound I-1508] | 200 to 1000 |
| CC1(C(=O)N2CCC(O)(Cn3cnc4c(cnn4-c4cccc(N5CCC(F)CC5)c4)c3=O)CC2)CC1 [Compound I-1561] | < 200 |
| CC1(C(=O)N2CCC(O)(Cn3cnc4c(cnn4-c4ccc(N5CC(C6CCOCC6)C5)cc4)c3=O)CC2)CC1 [Compound I-1570] | 200 to 1000 |
| O=C(c1ccc(F)cc1)N1CCC(O)(Cn2cnc3c(cnn3-c3ccc(-c4cnn(C5CCOCC5)c4)cc3)c2=O)CC1 [Compound I-1614] | 200 to 1000 |
| O=C(c1ccc(F)cc1)N1CCC(O)(Cn2cnc3c(cnn3-c3ccc(-c4cnn(C5COC5)c4)cc3)c2=O)CC1 [Compound I-1615] | 200 to 1000 |
| CC(C)(CO)n1cc(-c2ccc(-n3ncc4c(=O)n(CC5(O)CCN(C(=O)c6ccc(F)cc6)CC5)cnc43)cc2)cn1 [Compound I-1616] | 200 to 1000 |
| CC(C)(O)Cn1cc(-c2ccc(-n3ncc4c(=O)n(CC5(O)CCN(C(=O)c6ccc(F)cc6)CC5)cnc43)cc2)cn1 [Compound I-1617] | 200 to 1000 |

same assay, conditions: USP7 assay A and B (table does not say which assay per compound); read-out: USP7_IC50

| SMILES | IC50 [nM] |
| --- | --- |
| N#Cc1ccc(Nc2ccc(-n3ncc4c(=O)n(CC5(O)CCN(C(=O)C6CC6)CC5)cnc43)cc2)nc1 [Compound I-1277] | 1000 to 10000 |
| O=C(c1ccc(F)cc1)N1CCC(O)(Cn2cnc3c(cnn3-c3cccc(OCc4ccccc4)c3)c2=O)CC1 [Compound I-1285] | 1000 to 10000 |
| CN(C)C(=O)N1CCC(O)(Cn2cnc3c(cnn3-c3ccc(OCC4CC4)cc3)c2=O)CC1 [Compound I-1289] | 1000 to 10000 |
| CN(C)C(=O)N1CCC(O)(Cn2cnc3c(cnn3-c3ccc(OCC4CCC4)cc3)c2=O)CC1 [Compound I-1295] | 1000 to 10000 |
| NC(=O)COc1ccc(-n2ncc3c(=O)n(CC4(O)CCN(C(=O)c5ccc(F)cc5)CC4)cnc32)cc1 [Compound I-1307] | 1000 to 10000 |
| CN1CCCCC1COc1ccc(-n2ncc3c(=O)n(CC4(O)CCN(C(=O)c5ccc(F)cc5)CC4)cnc32)cc1 (stereo not shown) [Compound I-1313] | 200 to 1000 |
| CN1CCCCC1COc1cccc(-n2ncc3c(=O)n(CC4(O)CCN(C(=O)c5ccc(F)cc5)CC4)cnc32)c1 (stereo not shown) [Compound I-1314] | 200 to 1000 |
| N#Cc1cccc(COc2ccc(-n3ncc4c(=O)n(CC5(O)CCN(C(=O)c6ccc(F)cc6)CC5)cnc43)cc2)c1 [Compound I-1318] | 1000 to 10000 |
| N#CCOc1ccc(-n2ncc3c(=O)n(CC4(O)CCN(C(=O)c5ccc(F)cc5)CC4)cnc32)cc1 [Compound I-1320] | 1000 to 10000 |
| O=C(c1ccc(F)cc1)N1CCC(O)(Cn2cnc3c(cnn3-c3ccc(OCC4CCOCC4)cc3)c2=O)CC1 [Compound I-1324] | 1000 to 10000 |
| O=C(c1ccc(F)cc1)N1CCC(O)(Cn2cnc3c(cnn3-c3cccc(OCC4CCOCC4)c3)c2=O)CC1 [Compound I-1325] | 1000 to 10000 |
| COCCOc1ccc(-n2ncc3c(=O)n(CC4(O)CCN(C(=O)c5ccc(F)cc5)CC4)cnc32)cc1 [Compound I-1363] | 1000 to 10000 |
| O=C(Nc1ccc(-n2ncc3c(=O)n(CC4(O)CCN(C(=O)C5CC5)CC4)cnc32)cc1)C1CC1 [Compound I-1377] | 1000 to 10000 |
| O=C(Nc1ccc(-n2ncc3c(=O)n(CC4(O)CCN(C(=O)C5CC5)CC4)cnc32)cc1)c1ccccc1F [Compound I-1380] | 1000 to 10000 |
| O=C(Nc1ccc(-n2ncc3c(=O)n(CC4(O)CCN(C(=O)C5CC5)CC4)cnc32)cc1)c1ccccn1 [Compound I-1383] | 1000 to 10000 |
| O=C(Nc1ccc(-n2ncc3c(=O)n(CC4(O)CCN(C(=O)C5CC5)CC4)cnc32)cc1)C1CCOCC1 [Compound I-1395] | 1000 to 10000 |
| Cc1oncc1S(=O)(=O)Nc1cccc(-n2ncc3c(=O)n(CC4(O)CCN(C(=O)C5CC5)CC4)cnc32)c1 [Compound I-1400] | 1000 to 10000 |
| O=C(C1CC1)N1CCC(O)(Cn2cnc3c(cnn3-c3ccc(NCC4CCOCC4)cc3)c2=O)CC1 [Compound I-1402] | 1000 to 10000 |
| O=C(C1CC1)N1CCC(O)(Cn2cnc3c(cnn3-c3cccc(NS(=O)(=O)c4cccc(Cl)c4)c3)c2=O)CC1 [Compound I-1406] | 1000 to 10000 |
| CS(=O)(=O)Nc1cccc(-n2ncc3c(=O)n(CC4(O)CCN(C(=O)C5CC5)CC4)cnc32)c1 [Compound I-1417] | 1000 to 10000 |
| Cc1noc(C)c1S(=O)(=O)Nc1ccc(-n2ncc3c(=O)n(CC4(O)CCN(C(=O)C5CC5)CC4)cnc32)cc1 [Compound I-1421] | 1000 to 10000 |
| O=C(C1CC1)N1CCC(O)(Cn2cnc3c(cnn3-c3ccc(NS(=O)(=O)c4ccc(Cl)cc4)cc3)c2=O)CC1 [Compound I-1422] | 1000 to 10000 |
| Cc1ccccc1S(=O)(=O)Nc1ccc(-n2ncc3c(=O)n(CC4(O)CCN(C(=O)C5CC5)CC4)cnc32)cc1 [Compound I-1425] | 1000 to 10000 |
| O=C(C1CC1)N1CCC(O)(Cn2cnc3c(cnn3-c3ccc(NS(=O)(=O)c4cccc(Cl)c4)cc3)c2=O)CC1 [Compound I-1428] | 1000 to 10000 |
| CS(=O)(=O)Nc1ccc(-n2ncc3c(=O)n(CC4(O)CCN(C(=O)C5CC5)CC4)cnc32)cc1 [Compound I-1431] | 1000 to 10000 |
| O=C(C1CC1)N1CCC(O)(Cn2cnc3c(cnn3-c3ccc(NS(=O)(=O)C4CC4)cc3)c2=O)CC1 [Compound I-1432] | 1000 to 10000 |
| O=C(C1CC1)N1CCC(O)(Cn2cnc3c(cnn3-c3ccc(NS(=O)(=O)Cc4ccc(F)cc4)cc3)c2=O)CC1 [Compound I-1433] | 1000 to 10000 |
| O=C(c1cnc(C2CC2)o1)N1CCC(O)(Cn2cnc3c(cnn3-c3ccc(C(F)(F)F)cc3)c2=O)CC1 [Compound I-1437] | 1000 to 10000 |

| SMILES | IC50 [nM] |
| --- | --- |
| O=C(Nc1ccc(-n2ncc3c(=O)n(CC4(O)CCN(C(=O)C5CC5)CC4)cnc32)cc1)Nc1cccnc1 [Compound I-1448] | 1000 to 10000 |
| CN(C)C(=O)N1CCC(O)(Cn2cnc3c(cnn3-c3ccc(N4CCC(F)(F)CC4)cc3)c2=O)CC1 [Compound I-1461] | 1000 to 10000 |
| CN(C)C1CCN(C(=O)c2cccc(-n3ncc4c(=O)n(CC5(O)CCN(C(=O)C6CC6)CC5)cnc43)c2)CC1 [Compound I-1468] | 1000 to 10000 |
| CN(C)CCNC(=O)c1ccc(-n2ncc3c(=O)n(CC4(O)CCN(C(=O)C5CC5)CC4)cnc32)cc1 [Compound I-1487] | 200 to 1000 |
| O=C(Nc1ccccc1)c1ccc(-n2ncc3c(=O)n(CC4(O)CCN(C(=O)C5CC5)CC4)cnc32)cc1 [Compound I-1490] | 1000 to 10000 |
| O=C(Nc1ccc(F)cc1)c1ccc(-n2ncc3c(=O)n(CC4(O)CCN(C(=O)C5CC5)CC4)cnc32)cc1 [Compound I-1492] | 1000 to 10000 |
| O=C(Nc1nccs1)c1ccc(-n2ncc3c(=O)n(CC4(O)CCN(C(=O)C5CC5)CC4)cnc32)cc1 [Compound I-1493] | 1000 to 10000 |
| CN(C)C1CCN(C(=O)c2ccc(-n3ncc4c(=O)n(CC5(O)CCN(C(=O)C6CC6)CC5)cnc43)cc2)CC1 [Compound I-1496] | 1000 to 10000 |
| O=C(Nc1ccc(-n2ncc3c(=O)n(CC4(O)CCN(C(=O)C5CC5)CC4)cnc32)cc1)N1CCCC1 [Compound I-1499] | 1000 to 10000 |
| CN(C)C(=O)Nc1cccc(-n2ncc3c(=O)n(CC4(O)CCN(C(=O)C5CC5)CC4)cnc32)c1 [Compound I-1501] | 1000 to 10000 |
| Cc1ccc(-n2ncc3c(=O)n(CC4(O)CCN(C(=O)c5ccc(Oc6ccccn6)cc5)CC4)cnc32)cc1 [Compound I-1510] | 200 to 1000 |
| Cc1ccc(-n2ncc3c(=O)n(CC4(O)CCN(C(=O)c5cnc(C)o5)CC4)cnc32)cc1 [Compound I-1514] | 200 to 1000 |
| O=C(c1ccc(Oc2ccccn2)cc1)N1CCC(O)(Cn2cnc3c(cnn3-c3ccc(Cl)cc3)c2=O)CC1 [Compound I-1519] | 1000 to 10000 |
| O=C(c1ccc2c(c1)CCO2)N1CCC(O)(Cn2cnc3c(cnn3-c3ccc(Cl)cc3)c2=O)CC1 [Compound I-1521] | 1000 to 10000 |
| Cc1ccc(C(=O)N2CCC(O)(Cn3cnc4c(cnn4-c4ccc(Cl)cc4)c3=O)CC2)cc1F [Compound I-1523] | 1000 to 10000 |
| Cc1ncc(C(=O)N2CCC(O)(Cn3cnc4c(cnn4-c4ccc(Cl)cc4)c3=O)CC2)o1 [Compound I-1524] | 1000 to 10000 |
| CN(C)C(=O)N1CCC(O)(Cn2cnc3c(cnn3-c3ccc(N4CCN5CCCCC5C4)cc3)c2=O)CC1 (stereo not shown) [Compound I-1525] | 1000 to 10000 |
| CN(C)C(=O)N1CCC(O)(Cn2cnc3c(cnn3-c3ccc(-n4cc(C(F)(F)F)cn4)cc3)c2=O)CC1 [Compound I-1526] | 1000 to 10000 |
| O=C(c1cc2n(n1)CCO2)N1CCC(O)(Cn2cnc3c(cnn3-c3ccc(Cl)cc3)c2=O)CC1 [Compound I-1527] | 1000 to 10000 |
| O=C(c1ccc(Oc2ncccn2)cc1)N1CCC(O)(Cn2cnc3c(cnn3-c3ccc(Cl)cc3)c2=O)CC1 [Compound I-1528] | 1000 to 10000 |
| O=C(c1ccc(-n2ccnn2)cc1)N1CCC(O)(Cn2cnc3c(cnn3-c3ccc(F)cc3)c2=O)CC1 [Compound I-1535] | 200 to 1000 |
| Cc1ccc(-n2ncc3c(=O)n(CC4(O)CCN(C(=O)c5cnc(C6CC6)o5)CC4)cnc32)cc1 [Compound I-1542] | 200 to 1000 |
| CN(C)C(=O)N1CCC(O)(Cn2cnc3c(cnn3-c3ccc(NCCN4CCCCC4)cc3)c2=O)CC1 [Compound I-1543] | 200 to 1000 |
| CN(C)C(=O)N1CCC(O)(Cn2cnc3c(cnn3-c3ccc(NC4CC(C)(C)C4)cc3)c2=O)CC1 [Compound I-1544] | 1000 to 10000 |
| O=C(c1cc2n(n1)CCCO2)N1CCC(O)(Cn2cnc3c(cnn3-c3ccc(Cl)cc3)c2=O)CC1 [Compound I-1569] | 1000 to 10000 |
| CN(C)C(=O)Nc1ccc(-n2ncc3c(=O)n(CC4(O)CCN(C(=O)c5ccc(F)cc5)CC4)cnc32)cc1 [Compound I-1576] | 1000 to 10000 |
| O=C(C1CC1)N1CCC(O)(Cn2cnc3c(cnn3-c3ccc(N4CCN5CCCCC5C4)cc3)c2=O)CC1 (stereo not shown) [Compound I-1584] | 200 to 1000 |
